Converted amounts (≈) assume the structure as drawn.
Legend:
[1] = saturated concentration (solubility) of cilostazol in aqueous cyclodextrin solutions, determined by HPLC; format: physicochemical; details: aqueous with cosolvent or surfactant or cyclodextrin, thermodynamic from solid; excess cilostazol in water for injection with the row's cyclodextrin compound at the row's concentration (g/L); shaken at 60° C. for 24 hours, membrane filtered, HPLC of filtrate
Protocol: Each of the following cyclodextrin compounds was dissolved in water for injection. To this, an excess amount of cilostazol was added and the mixture was shaken at 60° C. for 24 hours. Then, the mixture was filtered through a membrane filter to remove insoluble materials and the amount of cilostazol in the filtrate was determined by the method of HPLC (High Performance Liquid Chromatography) to calculate the saturated concentration (solubility). Cyclodextrin compounds used were alpha-cyclodextrin (Trade Name: Celdex A-100, manufactured by NIHON SHOKUHIN KAKO Co. Ltd., beta-cyclodextrin (Trade Name: Celdex B-100, manufactured by NIHON SHOKUHIN KAKO Co. Ltd.), gamma-cyclodextrin (Trade Name: Celdex C-100, manufactured by NIHON SHOKUHIN KAKO Co. Ltd.), 6-O-alpha-maltosyl-beta-cyclodextrin (manufactured by Ensuiko Sugar Refining Co., Ltd), 2-hydroxypropyl-beta-cyclodextrin (Trade Name: Celdex HP-beta-CD, manufactured by NIHON SHOKUHIN KAKO Co. Ltd), hepta-substituted sulfobutylether-beta-cyclodextrin sodium salt (hereinafter abbreviated as SBE7-beta-CD)(Trade Name: Captisol, manufactured by CyDex Inc.).
Also, as a Reference Example, the solubility of cilostazol without addition of cyclodextrin compounds was determined similarly.

[2] = ordinary temperatures; cited from earlier work

**Q.** With O=C1CCc2cc(OCCCCc3nnnn3C3CCCCC3)ccc2N1 [Cilostazol, 6-[4-(1-cyclohexyl-1,2,3,4-Tetrazol-5-yl)butoxy]-3,4-dihydrocarbostyril] as the compound, how does the solubility at 24 h [1] read?
**A.** Its solubility at 24 h is 3.5 µg/mL (≈ 9.47 µM).

**Q.** And the solubility in water [2]?
**A.** The solubility in water was “about 3 μg/ml”.
